{"source": "patent US20220168403A1", "about": "“SUBCUTANEOUS TELOMERASE INHIBITOR COMPOSITIONS AND METHODS FOR USING SAME” (Geron Corporation, priority 2020, published 2022)", "key": {"[1]": {"test_system": "cancer cell lines and human tumors", "conditions": "U.S. Pat. No. 7,494,982, cited from earlier work"}, "[2]": {"test_system": "patients with lower risk myelodysplastic syndrome", "conditions": "administered intravenously; cited from earlier work"}, "[3]": {"test_system": "template region of the RNA component of telomerase", "conditions": "background statement; cited from earlier work"}, "[4]": {"assay": "Pre-study compatibility of imetelstat co-formulated with rHuPH20 (appearance, UV assay, water content, pH, RP-HPLC/UV)", "assay_type": "physicochemical", "protocol": "The following formulations were prepared"}, "[5]": {"assay": "Bioavailability of imetelstat sodium in rats via subcutaneous and intravenous routes (plasma LC/MS/MS, noncompartmental PK)", "assay_type": "in vivo, Sprague-Dawley rats", "protocol": "4 male, Sprague-Dawley rats (approximately 250 g-260 g) were dosed intravenously (IV volume 37.5 μL; 30 mg/kg) and 4 male, Sprague-Dawley rats (approximately 250 g-260 g) were dosed subcutaneously (SC volume 113 μL; 90 mg/kg) with imetelstat sodium. Imetelstat sodium is a 5′ palmitoylated 13-mer thiophosphoramidate oligonucleotide composed of the sequence 5′-TAGGGTTAGACAA-3′. Imetelstat sodium was dissolved in water immediately before dosing.\nBlood was collected from each of the rats at time points of 0.083 hours (˜5 minutes), 0.25 hours (15 minutes), 1 hour, 2 hours, 4 hours, 8 hours and at 24 hours. A volume of […] of whole blood was collected, yielding about 700 μL to 1000 μL of plasma. Blood was collected through a secondary catheter in IV dosed rats (different from the one used for IV dosing).\nBlood samples were collected in EDTA tubes and centrifuged immediately after collection. Collected plasma samples were transferred to a separate vial. Plasma concentration of imetelstat sodium was analyzed by LC/MS/MS.\nThe plasma concentrations of imetelstat sodium that were analyzed over a 24 hour period are depicted in FIG. 1. The plasma concentrations of imetelstat sodium were analyzed by a noncompartmental PK analysis. The subcutaneous (s.c.) bioavailability was calculated based on the following equation: F=(AUC(s.c.)/Dose(s.c.))/(AUC(i.v.)/Dose(i.v.))×100%."}, "[6]": {"test_system": "patients with myelofibrosis", "conditions": "administered intravenously, correlated with reduction of mutation burden and cytogenetic abnormalities; cited from earlier work"}}, "data": [{"smiles": "CCCCCCCCCCCCCCCC(=O)NCC(O)COP(=O)([S-])OC[C@H]1O[C@@H](n2cc(C)c(=O)[nH]c2=O)CC1NP(=O)([S-])OC[C@H]1O[C@@H](n2cnc3c(N)ncnc32)CC1NP(=O)([S-])OC[C@H]1O[C@@H](n2cnc3c(=O)[nH]c(N)nc32)CC1NP(=O)([S-])OC[C@H]1O[C@@H](n2cnc3c(=O)[nH]c(N)nc32)CC1NP(=O)([S-])OC[C@H]1O[C@@H](n2cnc3c(=O)[nH]c(N)nc32)CC1NP(=O)([S-])OC[C@H]1O[C@@H](n2cc(C)c(=O)[nH]c2=O)CC1NP(=O)([S-])OC[C@H]1O[C@@H](n2cc(C)c(=O)[nH]c2=O)CC1NP(=O)([S-])OC[C@H]1O[C@@H](n2cnc3c(N)ncnc32)CC1NP(=O)([S-])OC[C@H]1O[C@@H](n2cnc3c(=O)[nH]c(N)nc32)CC1NP(=O)([S-])OC[C@H]1O[C@@H](n2cnc3c(N)ncnc32)CC1NP(=O)([S-])OC[C@H]1O[C@@H](n2ccc(N)nc2=O)CC1NP(=O)([S-])OC[C@H]1O[C@@H](n2cnc3c(N)ncnc32)CC1NP(=O)([S-])OC[C@H]1O[C@@H](n2cnc3c(N)ncnc32)CC1N.[Na+].[Na+].[Na+].[Na+].[Na+].[Na+].[Na+].[Na+].[Na+].[Na+].[Na+].[Na+].[Na+]", "note": "(stereo partly drawn) [imetelstat sodium, 5′ palmitoylated 13-mer thiophosphoramidate oligonucleotide composed of the sequence 5′-TAGGGTTAGACAA-3′]", "values": [{"measurement": "telomerase activity inhibition", "setting": "[1]; background", "result": "inhibits telomerase activity"}, {"measurement": "effect on cell proliferation", "setting": "[1]; multitude of different cancer cell lines and human tumors", "result": "effective against cell proliferation"}, {"measurement": "transfusion independence", "setting": "[2]", "result": "able to achieve durable transfusion independence in certain patients"}, {"measurement": "binding to the template region of the RNA component of telomerase", "setting": "[3]", "result": "high affinity"}, {"measurement": "Individual Impurities by RP-HPLC/UV: Unlipidated species", "setting": "[4]; RRT 0.42", "result": 0.26, "unit": "% Area"}, {"measurement": "Individual Impurities by RP-HPLC/UV: Pre-Peak", "setting": "[4]; RRT 0.98", "result": 0.35, "unit": "% Area"}, {"measurement": "Individual Impurities by RP-HPLC/UV: Post-Peak 1", "setting": "[4]; RRT 1.04", "result": 5.04, "unit": "% Area"}, {"measurement": "Individual Impurities by RP-HPLC/UV: Post-Peak 2", "setting": "[4]; RRT 1.08", "result": 0.53, "unit": "% Area"}, {"measurement": "Individual Impurities by RP-HPLC/UV: Post-Peak 3", "setting": "[4]; RRT 1.12 (Imetelstat Only), 1.09 (co-formulations)", "result": "<0.2", "unit": "% Area"}, {"measurement": "Assay by UV", "setting": "[4]; pre-study", "result": 1033, "unit": "µg/mg"}, {"measurement": "Water Content", "setting": "[4]; pre-study", "result": 4.2, "unit": "%"}, {"measurement": "pH (1 mL, Plastic)", "setting": "[4]; pre-study", "result": 8.0}, {"measurement": "Purity by RP-HPLC/UV", "setting": "[4]; pre-study compatibility", "result": 93.1, "unit": "%"}, {"measurement": "Total Impurities by RP-HPLC/UV", "setting": "[4]; pre-study compatibility", "result": 6.9, "unit": "%"}, {"measurement": "Appearance of Reconstituted Solution", "setting": "[4]; pre-study, Imetelstat Only = most current stability data of the drug substance lot", "result": "Clear solution,"}, {"measurement": "calculated subcutaneous bioavailability (F)", "setting": "[5]; SC 90 mg/kg vs IV 30 mg/kg, F=(AUC(s.c.)/Dose(s.c.))/(AUC(i.v.)/Dose(i.v.))×100%, 24 hour period", "result": "about 95.8%"}, {"measurement": "calculated subcutaneous bioavailability (F)", "setting": "[5]; repeated experiment", "result": "about 81.5%"}, {"measurement": "overall survival and bone marrow fibrosis", "setting": "[6]", "result": "able to achieve improvement in overall survival and bone marrow fibrosis"}]}]}
